Source: ChEMBL document CHEMBL3751735, “Discovery of 2-(4-sulfonamidophenyl)-indole 3-carboxamides as potent and selective inhibitors with broad hepatitis C virus genotype activity targeting HCV NS4B” (Bioorg Med Chem Lett, 2016)

Key:
Hepatitis C virus [1] = assay: Antiviral activity against HCV genotype 1b Con1 bicistronic replicon infected in human Huh7 cells assessed as replicon RNA expression measured 3 days post dose by real time RT-PCR analysis; type: functional, organism-based, Hepacivirus hominis; details: isolate Con1, Huh-7, 72 h
[2] = Toxicity against human HuH7 cells harboring HCV genotype 1b bicistronic replicon assessed as inhibition of GAPDH mRNA expression measured 3 days post dose by real time RT-PCR analysis; type: cell-based, Huh-7
Hepatitis C virus [3] = assay: Antiviral activity against HCV genotype 2a JFH-1 infected in human HuH7.5 cells assessed as HCV RNA expression measured 72 hrs post dose by qRT-PCR analysis; type: functional, organism-based, Hepacivirus hominis; details: JFH-1, Huh-7, 72 h
Hepatitis C virus [4] = assay: Antiviral activity against HCV genotype 1a H77S bicistronic replicon infected in human Huh7 cells assessed as replicon RNA expression measured 3 days post dose by real time RT-PCR analysis; type: functional, organism-based, Hepacivirus hominis; details: Huh-7, 72 h
Hepatitis C virus [5] = assay: Antiviral activity against HCV genotype 3a S52/SG-Feo(SH) infected in human HuH7.5 cells measured 3 days post dose by Luciferase assay; type: functional, organism-based, Hepacivirus hominis; details: Huh-7, 72 h
[6] = AUC (0 to 6 hrs) in Sprague-Dawley rat plasma at 10 mg/kg, po measured at 30 mins to 6 hrs post dose; type: ADME, organism-based; parameters: dose 10 mg/kg, time < 6 hr, route oral
[7] = Ratio of drug level in liver to plasma in Sprague-Dawley rat at 10 mg/kg, po measured 6 hrs post dose; type: ADME, organism-based; details: liver and plasma
Hepatitis C virus [8] = assay: Antiviral activity against HCV genotype 1b harboring NS4B F98C mutant relative to wild type HCV genotype 1b; type: functional, Hepacivirus hominis
Hepatitis C virus [9] = assay: Antiviral activity against HCV genotype 1b harboring NS4B V105M mutant relative to wild type HCV genotype 1b; type: functional, Hepacivirus hominis

Row | SMILES | EC50 (Hepatitis C virus [1]) [nM] | IC50 at 3 days [2] [nM] | EC50 (Hepatitis C virus [3]) [nM] | EC50 (Hepatitis C virus [4]) [nM] | EC50 (Hepatitis C virus [5]) [nM] | AUC(0-t) at 6 h [6] [µM·h] | Kp at 6 h [7] | fold change (FC) (Hepatitis C virus [8]) | fold change (FC) (Hepatitis C virus [9])
1 | Cc1cc(NS(=O)(=O)C(C)(C)C)ccc1-c1c(C(N)=O)c2cc(F)c(OC(F)F)cc2n1-c1ccccc1 | 2 | > 10000 |  |  |  |  |  |  | 
2 | CCc1cc2c(cc1F)c(C(N)=O)c(-c1ccc(NS(=O)(=O)C(C)C)cc1)n2C1CCCC1 | 68 | > 10000 |  |  |  |  |  |  | 
3 | CC(C)(C)S(=O)(=O)Nc1ccc(-c2c(C(N)=O)c3cc(F)c(OC(F)F)cc3n2C2CCCCC2)c(Cl)c1 | 2 | > 10000 | 28 | < 1 | 0.2 | 2.1 | 115 |  | 
4 | Cc1cc2c(cc1F)c(C(N)=O)c(-c1ccc(NS(=O)(=O)C(C)(C)C)cc1)n2C1CCCC1 | 39 | > 10000 | 10 | 20 | 317 | 0.457 | 15 |  | 
5 | CCc1cc2c(cc1F)c(C(N)=O)c(-c1ccc(NS(=O)(=O)C(C)(C)C)cc1)n2C1CCCC1 | 7 | > 10000 | 20 | 130 | 115 | 4.12 | 27 |  | 
6 | CC(C)(C)S(=O)(=O)Nc1ccc(-c2c(C(N)=O)c3cc(F)c(OC(F)F)cc3n2C2CCCC2)cc1 | 5 | > 10000 | 6 | 4 | 20 | 0.382 | 47 |  | 
7 | CC(C)(C)S(=O)(=O)Nc1ccc(-c2c(C(N)=O)c3cc(F)c(OC(F)F)cc3n2C2CCCCC2)cc1F | 3 | > 1000 |  |  |  |  |  |  | 
8 | CC(C)(C)S(=O)(=O)Nc1ccc(-c2c(C(N)=O)c3cc(F)c(OC(F)F)cc3n2-c2ccccc2)cc1F | 12 | > 1100 |  |  |  |  |  |  | 
9 | CC(C)(C)S(=O)(=O)Nc1ccc(-c2c(C(N)=O)c3cc(F)c(OC(F)F)cc3n2C2CCCCC2)cc1Cl | 305 | > 1000 |  |  |  |  |  |  | 
10 | Cc1cc(NS(=O)(=O)C(C)(C)C)ccc1-c1c(C(N)=O)c2cc(F)c(OC(F)F)cc2n1C1CCCCC1 | 10 | > 10000 | 24 | 1 | 0.5 | 4.96 | 62 |  | 
11 | CC(C)(C)S(=O)(=O)Nc1ccc(-c2c(C(N)=O)c3cc(F)c(OC(F)F)cc3n2C2CCCCC2)cn1 | 6 | > 10000 | 380 | 10 | 119 | 0.204 | 332 |  | 
12 | Cc1cc2c(cc1F)c(C(N)=O)c(-c1ccc(NS(=O)(=O)C(C)(C)C)cc1)n2C1CCOCC1 | 17 | > 10000 |  |  |  |  |  |  | 
13 | CC(C)(C)S(=O)(=O)Nc1ccc(-c2c(C(N)=O)c3c(F)cc(C(F)F)cc3n2C2CCCC2)cc1 | 4 | > 10000 |  |  |  |  |  |  | 
14 | COc1cc2c(cc1F)c(C(N)=O)c(-c1ccc(NS(=O)(=O)C(C)(C)C)cc1)n2C1CCCC1 | 59 | > 10000 |  |  |  |  |  |  | 
15 | CCc1cc2c(cc1F)c(C(N)=O)c(-c1cnc(NS(=O)(=O)C(C)(C)C)nc1)n2C1CCCCC1 | 2100 | > 10000 |  |  |  |  |  |  | 
16 | Cc1cc2c(cc1F)c(C(N)=O)c(-c1ccc(NS(=O)(=O)C(C)(C)C)cc1)n2-c1cccnc1 | 180 | > 10000 |  |  |  |  |  |  | 
17 | CC(C)c1cc2c(cc1F)c(C(N)=O)c(-c1ccc(NS(=O)(=O)C(C)(C)C)cc1)n2C1CCCC1 | 170 | > 10000 |  |  |  |  |  |  | 
18 | Cc1cc(-c2c(C(N)=O)c3cc(F)c(OC(F)F)cc3n2-c2ccccc2)ccc1NS(=O)(=O)C(C)(C)C | 120 | > 10000 |  |  |  |  |  |  | 
19 | CCc1cc2c(cc1F)c(C(N)=O)c(-c1ccc(NS(=O)(=O)C(C)(C)C)cc1)n2C1CCCCC1 | 4 | > 10000 |  |  |  |  |  |  | 
20 | CC(C)(C)S(=O)(=O)Nc1ccc(-c2c(C(N)=O)c3cc(F)c(OC(F)F)cc3n2C2CCCC2)c(F)c1 | 2 | > 10000 | 6 | 10 |  | 0.37 |  |  | 

Row | SMILES | EC50 (Hepatitis C virus [1]) [nM] | IC50 at 3 days [2] [nM] | EC50 (Hepatitis C virus [3]) [nM] | EC50 (Hepatitis C virus [4]) [nM] | EC50 (Hepatitis C virus [5]) [nM] | AUC(0-t) at 6 h [6] [µM·h] | Kp at 6 h [7] | fold change (FC) (Hepatitis C virus [8]) | fold change (FC) (Hepatitis C virus [9])
21 | Cc1cc(F)c2c(C(N)=O)c(-c3ccc(NS(=O)(=O)C(C)(C)C)cc3)n(C3CCCC3)c2c1 | 34 | > 10000 |  |  |  |  |  |  | 
22 | Cc1cc2c(cc1F)c(C(N)=O)c(-c1ccc(NS(=O)(=O)C(C)(C)C)cc1)n2C1CCC1 | 45 | > 10000 | 10 | 90 | 348 | 1.45 | 15 |  | 
23 | CCOc1cc2c(cc1F)c(C(N)=O)c(-c1ccc(NS(=O)(=O)C(C)(C)C)cc1)n2C1CCCC1 | 150 | > 10000 |  |  |  |  |  |  | 
24 | Cc1cc2c(cc1F)c(C(N)=O)c(-c1ccc(NS(=O)(=O)C(C)(C)C)cc1)n2-c1ccncc1 | 68 | > 10000 |  |  |  |  |  |  | 
25 | Cc1cc(-c2c(C(N)=O)c3cc(F)c(OC(F)F)cc3n2C2CCCCC2)ccc1NS(=O)(=O)C(C)(C)C | 36 | > 1000 |  |  |  |  |  |  | 
26 | Cc1cc2c(cc1F)c(C(N)=O)c(-c1ccc(NS(=O)(=O)C(C)(C)C)cc1)n2C1CCCCC1 | 2 | > 10000 | 135 | 8 | 80 | 0.685 | 11 |  | 
27 | CCCc1cc2c(cc1F)c(C(N)=O)c(-c1ccc(NS(=O)(=O)C(C)(C)C)cc1)n2C1CCCC1 | 1800 | 10000 |  |  |  |  |  |  | 
28 | Cc1cc2c(cc1F)c(C(N)=O)c(-c1ccc(NS(=O)(=O)C(C)C)cc1)n2C1CCCC1 | 56 | > 10000 |  |  |  |  |  |  | 
29 | CCCS(=O)(=O)Nc1ccc(-c2c(C(N)=O)c3cc(F)c(C)cc3n2C2CCCC2)cc1 | 870 | > 10000 |  |  |  |  |  |  | 
30 | CCc1cc2c(cc1F)c(C(N)=O)c(-c1ccc(NS(=O)(=O)C(C)(C)C)nc1)n2C1CCCCC1 | 19 | > 10000 |  |  |  |  |  |  | 
31 | CC(C)(C)S(=O)(=O)Nc1ccc(-c2c(C(N)=O)c3cc(F)c(OC(F)F)cc3n2C2CCCCC2)cc1 | 2 | > 10000 | 35 | 1 | 3 | 0.831 | 25 | >=22 | >55
32 | CC(C)(C)S(=O)(=O)Nc1ccc(-c2c(C(N)=O)c3cc(F)c(OC(F)F)cc3n2-c2ccccc2)cc1 | 2 | > 1100 | 62 | 2 | 12 | 14.4 | 26 |  | 
33 | CC(C)(C)S(=O)(=O)Nc1ccc(-c2c(C(N)=O)c3cc(F)c(OC(F)F)cc3n2C2CCCCC2)c(F)c1 | 2 | > 10000 | 23 | 2 | 0.4 | 3.09 | 70 |  | 
34 | Cc1cc(NS(=O)(=O)C(C)(C)C)ccc1-c1c(C(N)=O)c2cc(F)c(OC(F)F)cc2n1C1CCCC1 | 14 | 9100 |  |  |  |  |  |  | 
35 | CCc1cc2c(cc1F)c(C(N)=O)c(-c1ccc(NS(=O)(=O)C(C)(C)C)cn1)n2C1CCCCC1 | 68 | > 10000 |  |  |  |  |  |  | 
36 | CC(C)(C)S(=O)(=O)Nc1ccc(-c2c(C(N)=O)c3cc(F)c(C4CC4)cc3n2C2CCCC2)cc1 | 13 | > 10000 |  |  |  |  |  |  | 
37 | Cc1cc2c(cc1F)c(C(N)=O)c(-c1ccc(NS(=O)(=O)C(C)(C)C)cc1)n2-c1ccccc1 | 14 | > 10000 | 90 | 180 | 374 | 14.9 | 24 |  | 
38 | Cc1cc2c(cc1F)c(C(N)=O)c(-c1ccc(NS(=O)(=O)C(C)(C)C)cc1)n2-c1ccc(Cl)cc1 | 43 | > 10000 |  |  |  |  |  |  | 
39 | CC(C)(C)S(=O)(=O)Nc1ccc(-c2c(C(N)=O)c3cc(F)c(OC(F)F)cc3n2-c2ccccc2)c(F)c1 | 2 | > 10000 | 37 | 3 | 4 | 7.93 | 57 |  | 
40 | CC(C)(C)S(=O)(=O)Nc1ccc(-c2c(C(N)=O)c3cc(F)c(OC(F)F)cc3n2C2CCCC2)c(Cl)c1 | 2 | 4500 | 30 | 7 | 58 | 9.96 | 65 |  | 
